“And” between values parts separate entries of the source, which are not always exact repeats. Equal values may be shown once.
Tests used:
Format in all cases: cell-based, human
[1] = system: PolII Ser2 phosphorylation, cyclin K and CDK12 levels in MCF7 cells; test: Immunoblotting after CDK12 drugs, MCF7; conditions: WT MCF7; 6 h; immunoblot
Experimental: (§1) Whole-cell lysates were prepared in RIPA buffer (Sigma-Aldrich), supplemented with protease and phosphatase inhibitor cocktails (Roche). Protein sample concentrations were determined using the Pierce BCA Protein Assay kit (ThermoFisher Scientific). In all, 10–20 µg of total protein was loaded for each sample and resolved on 4–15% Mini-PROTEAN TGX Precast Protein Gels (BIO-RAD). Immunoblotting was performed as described (Patel et al, [2018]), using antibodies diluted 1:1000 for P-CDK2 (Thr160; 2561S), CDK2 (2546S), P-Rb (Ser807/811; 9308), Rb (9309), CDK7 (2916) and CDK12 (11973S), from Cell Signalling Technology. PolII CTD phosphorylation antibodies (P-Ser2 (ab5095) and P-Ser5 (ab5131), used at 1:10,000 dilution), as well as total PolII (ab817; 1:2000 dilution) and β-actin (ab6276; 1:100,000 dilution) were purchased from Abcam. CCNK antibody (Thermofisher A301-939A) was used at a 1:1000 dilution. Band intensities were quantified using ImageJ (Schneider et al, [2012]).

MCF7 cells = test: Growth assay (SRB), MCF7; conditions: for IC50: 4 days, SRB; for % Growth: biological reps
Experimental: (§2) To determine the IC50 of drug treatments on growth, cells were seeded in 96-well culture plates. Two days after seeding, the cells were treated with increasing concentrations of drugs and incubated for 4 days. Cell number was determined using the SRB assay (Skehan et al, [1990]), and IC50 values were calculated using non-linear regression curve fitting in GraphPad Prism v10. For all other growth experiments, cells were seeded into 96-well plates, and appropriate drugs were added 2 days after seeding. Cells were then incubated in an IncuCyte Zoom live-cell imager, with cell confluency measured every 6 h. Cell doubling times were determined by non-linear curve fitting (exponential growth equation) in GraphPad Prism v10.

[2] = system: MCF7 CDK12-D819N mutant cells; test: Growth assay (SRB), MCF7 CDK12-D819N knock-in; conditions: for IC50: MCF7 CDK12-D819N, SRB; for % Growth: MCF7 CDK12 D819N, biological reps
Experimental: as §2
Alt-R^TM S.p. Cas9 nuclease V3, Alt-R CRISPR-Cas9 crRNA, TracrRNA and the donor templates were obtained from Integrated DNA Technologies. […] Cells were treated with 0.7 µM of Alt-R HDR Enhancer V2 to improve HRD efficiency. Sequences of the CRISPRs in the crRNA and the donor templates are shown in the Reagents and tools table. Donor templates were designed to include non-coding substitutions to aid genome DNA PCR for identifying knock-in events and to facilitate cloning; these substitutions are noted in the Reagents and tools table.

[3] = system: PolII Ser2 phosphorylation, CCNK and CDK12 levels in MCF7-CDK12-D819N cells; test: Immunoblotting after CDK12 drugs, MCF7-CDK12-D819N; conditions: 6 h, immunoblot
Experimental: as §1

Compound	% Growth (MCF7 cells; Log10 Conc. (nM) 0.09, 4 days)	% Growth (MCF7 cells; Log10 Conc. (nM) 0.69, 4 days)	% Growth (MCF7 cells; Log10 Conc. (nM) 1.29, 4 days)	% Growth (MCF7 cells; Log10 Conc. (nM) 1.89, 4 days)	% Growth (MCF7 cells; Log10 Conc. (nM) -0.52, 4 days)	% Growth (MCF7 cells; Log10 Conc. (nM) -1.12, 4 days)	Fold Resistance ([2]; MCF7 CDK12-D819N vs MCF7)	% Growth ([2]; Log10 Conc. (nM) 0.09)	% Growth ([2]; Log10 Conc. (nM) 0.69)	% Growth ([2]; Log10 Conc. (nM) 1.29)	% Growth ([2]; Log10 Conc. (nM) 1.89)	% Growth ([2]; Log10 Conc. (nM) 2.49)	% Growth ([2]; Log10 Conc. (nM) -0.52)	% Growth ([2]; Log10 Conc. (nM) -1.12)	PolII phosphorylation [3]	also measured
CC[C@H](CO)Nc1nc(NCc2ccc(-c3ccccn3)cc2)c2ncn(C(C)C)c2n1 [(R)-CR8]	113.64% and 90.46% and 92.99%	122.04% and 94.84% and 85.58%	76.32% and 89.54% and 75.98%	57.39% and 71.11% and 59.97%	115.95% and 88.99% and 104.00%	101.40% and 88.53% and 107.01%	12.6 fold	94.80% and 70.33% and 88.48%	98.42% and 96.39% and 105.30%	84.25% and 91.23% and 97.75%	95.93% and 89.18% and 103.58%	84.48% and 84.10% and 82.39%	97.14% and 75.33% and 99.34%	97.97% and 74.35% and 85.17%	not inhibited	Levels of cyclin K and CDK12 [1]: reduced; PolII Ser2 phosphorylation [1]: reduced; IC50 (MCF7 cells): 84.5 nM; IC50 [2]: 1060 nM; CCNK and CDK12 levels [3]: not reduced
CN(C)C/C=C/C(=O)Nc1ccc(C(=O)N2CCC[C@@H](Nc3ncc(Cl)c(-c4c[nH]c5ccccc45)n3)C2)cc1 [THZ531]	83.64% and 110.72% and 83.40%	91.77% and 84.06% and 83.58%	66.96% and 86.43% and 81.13%	75.32% and 77.69% and 76.55%	81.18% and 108.13% and 93.60%	80.76% and 102.91% and 88.48%	1.8 fold	81.51% and 77.00%	84.74% and 98.74%	57.64% and 84.58%	68.69% and 77.28%	55.68% and 52.04%	82.78% and 107.29%	79.06% and 90.61%	Nor was inhibition of PolII Ser2 phosphorylation by THZ531 prevented	IC50 (MCF7 cells; Homo sapiens, 96 h): 356 nM; % Growth (MCF7 cells; Log10 Conc. (nM) 2.49, 4 days): 43.53% and 60.32% and 39.54%; % Growth (MCF7 cells; Log10 Conc. (nM) 3.70, 4 days): 4.54% and 7.84% and 2.57%; IC50 ([2]; Homo sapiens): 656 nM; Difference between the cell lines in growth response ([2]; MCF7 CDK12-D819N vs MCF7): no significant difference; % Growth ([2]; Log10 Conc. (nM) 3.10): 37.19% and 21.76%; % Growth ([2]; Log10 Conc. (nM) 3.70): 3.93% and -0.68%

— paper PMC12528448, “Resistance to CDK7 inhibitors directed by acquired mutation of a conserved residue in cancer cells” (The EMBO Journal, 2025)
